# According to US20100190187A1, “Screening Assays for Antagonists and Analyses of Cardiac Hypertrophy” (The Regents of the University of Michigan Office of …, priority 2006, published 2010):
# Test system: HL-1 cells
# Test: Immunofluorescence staining of hypertrophy related proteins in HL-1 cells
# Type: cell-based, murine
# Conditions: FIG. 12
# Excerpt: (§1) Immunofluorescent staining of HL-1 cells can be carried out in a method similar to that previously described (Tevosian et al., 1999), except that 0.5% CHAPS (Fisher) can be used instead of Triton X-100. Briefly, HL-1 cells grown on 2-well slides (Lab-Tek) are initially preserved with Sprayfix cytology fixative. To prepare for staining, the slides are washed in EtOH and water, and then briefly washed with PBS. Cells were fixed with cold acetone, rinsed with PBS, and permeabilized by three ten minute washes with 0.5% CHAPS/PBS. Next, the cells are blocked overnight with 5% milk/10% goat serum/PBS. The permeabilization step is then repeated prior to incubation with the primary antibody in 10% goat serum/0.5% CHAPS/PBS with the antibodies and dilutions listed below. After a one-hour incubation with the primary antibodies, the slides are washed three times in the 10% goat serum/0.5% CHAPS/PBS, then three times in 0.5% CHAPS/PBS. Secondary antibodies, as described below, can be incubated for one-hour with 1% BSA/0.5% CHAPS/PBS. After washing with 0.5% CHAPS/PBS the cells are stained for five minutes with 4,6-diamidine-2-phenylidole-dihydrochloride (DAPI Nucleic Acid Stain; Invitrogen) and cover slips are mounted with Prolong Gold anti-fade reagent (Invitrogen). The following antibody combinations can be used: rabbit anti-mouse VDR (sc-1008; Santa Cruz Biotech; 1:100 dilution), rabbit anti-mouse ANP (AB 5490; Chemicon; 1:50 dilution), and rabbit anti-mouse c-myc (sc-764; Santa Cruz Biotech; 1:100 dilution), all followed by FITC conjugated goat anti-rabbit (AP 307F; Chemicon; 1:400). Mouse monoclonal anti-myotrophin (V 11220, BD Transduction Laboratory; 1:50) followed by FITC conjugated goat anti-mouse (F-0257; Sigma; 1:128), and goat anti-mouse calbindin-9 (sc-18038. Santa Cruz Bio; 1:100) followed by FITC conjugated rabbit anti-goat (AP 106F; Chemicon; 1:100). Slides can be analyzed on an Olympus BX 51 immunofluorescence microscope and photomicrographs can be recorded as digital images.
# as §1, with “incubation” for “incubation with the primary antibodies,”, “The following antibody combinations can be used: rabbit anti-mouse VDR (sc-1008; Santa Cruz Biotech; 1:100 dilution), rabbit anti-mouse ANP (AB 5490; Chemicon; 1:50 dilution), and rabbit anti-mouse c-myc (sc-764; Santa Cruz Biotech; 1:100 dilution), all followed by FITC conjugated goat anti-rabbit (AP 307F; Chemicon; 1:400). Mouse monoclonal anti-myotrophin (V 11220, BD Transduction Laboratory; 1:50) followed by FITC conjugated goat anti-mouse (F-0257; Sigma; 1:128), and goat anti-mouse calbindin-9 (sc-18038. Santa Cruz Bio; 1:100) followed by FITC conjugated rabbit anti-goat (AP 106F; Chemicon; 1:100).” left out
smiles,measurement,value
C=C1CC[C@H](O)C/C1=C/C=C1\CCC[C@]2(C)[C@@H]([C@H](C)CCCC(C)C)CC[C@@H]12 [Vitamin D3],expression of ANP,inhibited or reduced the expression
same,expression of VDR,increased the expression
same,expression of c-myc,inhibited or reduced the expression
same,expression of calbindin 9,inhibited or reduced the expression
same,expression of myotrophin,increased the expression
